From patent US20250313533A1, “QUINOLINE CARBOXYLIC ACID ESTER COMPOUND AND PREPARATION METHOD AND USE THEREOF” (priority 2019, published 2025)

Key:
[1] = system: pathogenic bacteria causing bacterial angular leaf spot in cucumbers; experiment: In vitro bactericidal activity, bacterial angular leaf spot in cucumbers; assay type: cell-based, pseudomonas; settings: read-out: inhibitory rate; for inhibition at 1 ppm: dosage 1 ppm; for inhibition at 5 ppm: dosage 5 ppm
Experimental: (§1) Under aseptic conditions, equal amounts of NB culture medium were added to test tubes, and fixed amounts of the sample solutions were pipetted into the above test tubes in an ascending order of concentrations, respectively. The mixtures were well mixed and added with equal amounts of a bacterial suspension in log phase.
(§2) Each step of the procedure was repeated 4 times. After mixing, the mixture samples were incubated in the dark in a shaking incubator at 25° C. The OD values were measured when the bacteria were in log phase.

[2] = system: pathogenic bacteria causing bacterial wilt in tobacco; experiment: whole plant or invertebrate; assay type: cell-based, ralstonia; settings: read-out: inhibitory rate
[3] = system: pathogenic bacteria causing black shank in potatoes; experiment: In vitro bactericidal activity, black shank in potatoes; assay type: cell-based; settings: read-out: inhibitory rate; for inhibition at 1 ppm: dosage 1 ppm; for inhibition at 5 ppm: dosage 5 ppm
Experimental: as §1, §2

[4] = system: pathogenic bacteria causing stem rot in sweet potatoes; experiment: In vitro bactericidal activity, stem rot in sweet potatoes; assay type: cell-based, dikia; settings: read-out: inhibitory rate; for inhibition at 1 ppm: dosage 1 ppm; for inhibition at 5 ppm: dosage 5 ppm
Experimental: as §1, §2

[5] = system: pathogenic bacteria causing bacterial blight in rice; experiment: whole plant or invertebrate; assay type: cell-based, xanthomonas; settings: read-out: inhibitory rate
[6] = system: pathogenic bacteria causing fruit blotch in watermelons; experiment: In vitro bactericidal activity, fruit blotch in watermelons; assay type: cell-based, acidovorax; settings: read-out: inhibitory rate; for inhibition at 1 ppm: dosage 1 ppm; for inhibition at 5 ppm: dosage 5 ppm
Experimental: as §1, §2

[7] = system: pathogenic bacteria causing black rot in Chinese cabbages; experiment: In vitro bactericidal activity, black rot in Chinese cabbages; assay type: cell-based, xanthomonas; settings: Xanthomonas, read-out: inhibitory rate; for inhibition at 1 ppm: dosage 1 ppm; for inhibition at 5 ppm: dosage 5 ppm
Experimental: as §1, §2

[8] = system: pathogenic bacteria causing bacterial wilt in cassava; experiment: organism not typed; assay type: cell-based; settings: read-out: inhibitory rate
[9] = system: pathogenic bacteria causing fire blight in pears; experiment: In vitro bactericidal activity, fire blight in pears; assay type: cell-based, erwinia; settings: Erwinia, read-out: inhibitory rate; for inhibition at 1 ppm: dosage 1 ppm; for inhibition at 5 ppm: dosage 5 ppm
Experimental: as §1, §2

[10] = system: black shank in potatoes; experiment: Living crops in vivo protective activity, potatoes (root irrigation); settings: Solanum tuberosum, read-out: efficacy against black shank in potatoes; for pest or weed control at 5 ppm: dosage 5 ppm; for pest or weed control at 10 ppm: dosage 10 ppm
Experimental: Root irrigation was carried out on the potatoes for tests according to the designed concentration of the agents. The dosage for each plant was 200 mL and was kept consistent (also for the control). The black shank bacteria were inoculated on the second day after the application. The results were investigated according to the disease condition.

[11] = system: indoor potted cucumber seedlings; experiment: Effect of improving growth and development of crops; assay type: in vivo; design: Rate of growth rate increase (%): concentration or dose not given beside the values; settings: versus blank control; for Rate of chlorophyll content increase (%) / Rate of leaf area increase (%): 14 days after application; for Rate of growth rate increase (%): plant height 14 days after application; for Rate of leaf area increase (%): second leaf
Experimental: (§3) Taking indoor potted cucumber seedlings as an example, the influence of the compound disclosed herein on growth rate of plant height, chlorophyll content, leaf area, etc. of crops was mainly evaluated.
The plant heights of plants before application and 14 days after the application were measured.
The growth rates were calculated according to formula (1)
The rates of the growth rate increase (%) were calculated according to formula (2)
The longitudinal and transverse diameters (i.e., leaf length and leaf width, respectively, wherein the leaf length is the distance from the base to the tip of a leaf, and leaf width is the measured value of the upper shoulder width of the leaf) of the second leaf of plants before application and 14 days after the application were measured.
The leaf areas were calculated according to formula (3)
The leaf area increases were calculated according to formula (4)
The rates of the leaf area increases were calculated according to formula (5)
The chlorophyll contents of leaves were measured by using a chlorophyll measuring instrument (model: SPAD-520 Plus).
The chlorophyll content increases were calculated according to formula (6)
The rates of the chlorophyll content increases were calculated according to formula (7)

[12] = system: cucumber seedlings; experiment: Safety for plant growth after application; assay type: in vivo; settings: dosage 200 ppm
Source text: as §3
The results of safety and health-care effect of the compounds of the present disclosure on cucumber seedlings are shown in the following table 1: […]

[13] = system: bacterial wilt in tobacco; experiment: whole plant or invertebrate; settings: Nicotiana tabacum, read-out: efficacy against bacterial wilt in tobacco
[14] = system: stem rot in sweet potatoes; experiment: whole plant or invertebrate; settings: read-out: efficacy against stem rot in sweet potatoes
[15] = system: bacterial blight in rice; experiment: whole plant or invertebrate; settings: Oryza sativa, read-out: efficacy against bacterial blight in rice
[16] = system: fruit blotch in watermelons; experiment: whole plant or invertebrate; settings: read-out: efficacy against fruit blotch in watermelons
[17] = system: soft rot in Chinese cabbages; experiment: whole plant or invertebrate; settings: 48 h, read-out: efficacy against soft rot in Chinese cabbages

Compound: CCOc1cc2c(cc1F)c(=O)c(C(=O)OCCOC1CCCC1)cn2C1CC1 [Compound 307]
- inhibition at 1 ppm [1]: ≥ 90%
- inhibition at 5 ppm [1]: ≥ 90%
- inhibition at 1 ppm [2]: ≥ 90%
- inhibition at 5 ppm [2]: ≥ 90%
- inhibition at 1 ppm [3]: ≥ 90%
- inhibition at 5 ppm [3]: ≥ 90%
- inhibition at 1 ppm [4]: ≥ 90%
- inhibition at 5 ppm [4]: ≥ 90%
- inhibition at 1 ppm [5]: ≥ 90%
- inhibition at 5 ppm [5]: ≥ 90%
- inhibition at 1 ppm [6]: ≥ 90%
- inhibition at 5 ppm [6]: ≥ 90%
- inhibition at 1 ppm [7]: ≥ 90%
- inhibition at 5 ppm [7]: ≥ 90%
- inhibition at 1 ppm [8]: ≥ 90%
- inhibition at 5 ppm [8]: ≥ 90%
- inhibition at 1 ppm [9]: ≥ 90%
- inhibition at 5 ppm [9]: ≥ 90%
- pest or weed control at 5 ppm [10]: ≥ 90%
- pest or weed control at 10 ppm [10]: ≥ 90%
- Rate of chlorophyll content increase (%) [11]: 11%
- Rate of growth rate increase (%) [11]: 9%
- Rate of leaf area increase (%) [11]: 12%
- safety for plant growth (discoloration, necrosis, wilt, malformation) [12]: safe for plant growth
- pest or weed control at 5 ppm [13]: ≥ 90%
- pest or weed control at 10 ppm [13]: ≥ 90%
- pest or weed control at 5 ppm [14]: ≥ 90%
- pest or weed control at 10 ppm [14]: ≥ 90%
- pest or weed control at 5 ppm [15]: ≥ 90%
- pest or weed control at 10 ppm [15]: ≥ 90%
- pest or weed control at 5 ppm [16]: ≥ 90%
- pest or weed control at 10 ppm [16]: ≥ 90%
- pest or weed control at 5 ppm [17]: ≥ 90%
- pest or weed control at 10 ppm [17]: ≥ 90%

Compound: CCN(CC)c1cc2c(cc1F)c(=O)c(C(=O)OCCOC)cn2C1CC1 [Compound 420, 2-methoxyethyl 1-cyclopropyl-7-(diethylamino)-6-fluoro-4-oxo-1,4-dihydroquinoline-3-carboxylate]
- inhibition at 1 ppm [1]: ≥ 90%
- inhibition at 5 ppm [1]: ≥ 90%
- inhibition at 1 ppm [2]: ≥ 90%
- inhibition at 5 ppm [2]: ≥ 90%
- inhibition at 1 ppm [3]: ≥ 90%
- inhibition at 5 ppm [3]: ≥ 90%
- inhibition at 1 ppm [4]: ≥ 90%
- inhibition at 5 ppm [4]: ≥ 90%
- inhibition at 1 ppm [5]: ≥ 90%
- inhibition at 5 ppm [5]: ≥ 90%
- inhibition at 1 ppm [6]: ≥ 90%
- inhibition at 5 ppm [6]: ≥ 90%
- inhibition at 1 ppm [7]: ≥ 90%
- inhibition at 5 ppm [7]: ≥ 90%
- inhibition at 1 ppm [8]: ≥ 90%
- inhibition at 5 ppm [8]: ≥ 90%
- inhibition at 1 ppm [9]: ≥ 90%
- inhibition at 5 ppm [9]: ≥ 90%
- pest or weed control at 5 ppm [10]: ≥ 90%
- pest or weed control at 10 ppm [10]: ≥ 90%
- Rate of chlorophyll content increase (%) [11]: 9%
- Rate of growth rate increase (%) [11]: 9%
- Rate of leaf area increase (%) [11]: 12%
- safety for plant growth (discoloration, necrosis, wilt, malformation) [12]: safe for plant growth
- pest or weed control at 5 ppm [13]: ≥ 90%
- pest or weed control at 10 ppm [13]: ≥ 90%
- pest or weed control at 5 ppm [14]: ≥ 90%
- pest or weed control at 10 ppm [14]: ≥ 90%
- pest or weed control at 5 ppm [15]: ≥ 90%
- pest or weed control at 10 ppm [15]: ≥ 90%
- pest or weed control at 5 ppm [16]: ≥ 90%
- pest or weed control at 10 ppm [16]: ≥ 90%
- pest or weed control at 5 ppm [17]: ≥ 90%
- pest or weed control at 10 ppm [17]: ≥ 90%

Compound: O=C(OCCO)c1cn(C2CC2)c2cc(OCC(F)(F)F)c(F)cc2c1=O [Compound 275]
- inhibition at 1 ppm [1]: ≥ 90%
- inhibition at 5 ppm [1]: ≥ 90%
- inhibition at 1 ppm [2]: ≥ 90%
- inhibition at 5 ppm [2]: ≥ 90%
- inhibition at 1 ppm [3]: ≥ 90%
- inhibition at 5 ppm [3]: ≥ 90%
- inhibition at 1 ppm [4]: ≥ 90%
- inhibition at 5 ppm [4]: ≥ 90%
- inhibition at 1 ppm [5]: ≥ 90%
- inhibition at 5 ppm [5]: ≥ 90%
- inhibition at 1 ppm [6]: ≥ 90%
- inhibition at 5 ppm [6]: ≥ 90%
- inhibition at 1 ppm [7]: ≥ 90%
- inhibition at 5 ppm [7]: ≥ 90%
- inhibition at 1 ppm [8]: ≥ 90%
- inhibition at 5 ppm [8]: ≥ 90%
- inhibition at 1 ppm [9]: ≥ 90%
- inhibition at 5 ppm [9]: ≥ 90%
- pest or weed control at 5 ppm [10]: ≥ 90%
- pest or weed control at 10 ppm [10]: ≥ 90%
- Rate of chlorophyll content increase (%) [11]: 13%
- Rate of growth rate increase (%) [11]: 12%
- Rate of leaf area increase (%) [11]: 11%
- safety for plant growth (discoloration, necrosis, wilt, malformation) [12]: safe for plant growth
- pest or weed control at 5 ppm [13]: ≥ 90%
- pest or weed control at 10 ppm [13]: ≥ 90%
- pest or weed control at 5 ppm [14]: ≥ 90%
- pest or weed control at 10 ppm [14]: ≥ 90%
- pest or weed control at 5 ppm [15]: ≥ 90%
- pest or weed control at 10 ppm [15]: ≥ 90%
- pest or weed control at 5 ppm [16]: ≥ 90%
- pest or weed control at 10 ppm [16]: ≥ 90%
- pest or weed control at 5 ppm [17]: ≥ 90%
- pest or weed control at 10 ppm [17]: ≥ 90%

Compound: CCOc1cc2c(cc1F)c(=O)c(C(=O)OCCOC(C)C)cn2C1CC1 [Compound 300]
- inhibition at 1 ppm [1]: ≥ 90%
- inhibition at 5 ppm [1]: ≥ 90%
- inhibition at 1 ppm [2]: ≥ 90%
- inhibition at 5 ppm [2]: ≥ 90%
- inhibition at 1 ppm [3]: ≥ 90%
- inhibition at 5 ppm [3]: ≥ 90%
- inhibition at 1 ppm [4]: ≥ 90%
- inhibition at 5 ppm [4]: ≥ 90%
- inhibition at 1 ppm [5]: ≥ 90%
- inhibition at 5 ppm [5]: ≥ 90%
- inhibition at 1 ppm [6]: ≥ 90%
- inhibition at 5 ppm [6]: ≥ 90%
- inhibition at 1 ppm [7]: ≥ 90%
- inhibition at 5 ppm [7]: ≥ 90%
- inhibition at 1 ppm [8]: ≥ 90%
- inhibition at 5 ppm [8]: ≥ 90%
- inhibition at 1 ppm [9]: ≥ 90%
- inhibition at 5 ppm [9]: ≥ 90%
- pest or weed control at 5 ppm [10]: ≥ 90%
- pest or weed control at 10 ppm [10]: ≥ 90%
- safety for plant growth (discoloration, necrosis, wilt, malformation) [12]: safe for plant growth
- pest or weed control at 5 ppm [13]: ≥ 90%
- pest or weed control at 10 ppm [13]: ≥ 90%
- pest or weed control at 5 ppm [14]: ≥ 90%
- pest or weed control at 10 ppm [14]: ≥ 90%
- pest or weed control at 5 ppm [15]: ≥ 90%
- pest or weed control at 10 ppm [15]: ≥ 90%
- pest or weed control at 5 ppm [16]: ≥ 90%
- pest or weed control at 10 ppm [16]: ≥ 90%
- pest or weed control at 5 ppm [17]: ≥ 90%
- pest or weed control at 10 ppm [17]: ≥ 90%

Compound: O=C(OCCOC1CC1)c1cn(C2CC2)c2cc(Cl)c(F)cc2c1=O [Compound 160]
- inhibition at 1 ppm [1]: ≥ 80%
- inhibition at 5 ppm [1]: ≥ 90%
- inhibition at 1 ppm [2]: ≥ 80%
- inhibition at 5 ppm [2]: ≥ 90%
- inhibition at 1 ppm [3]: ≥ 80%
- inhibition at 5 ppm [3]: ≥ 90%
- inhibition at 1 ppm [4]: ≥ 80%
- inhibition at 5 ppm [4]: ≥ 90%
- inhibition at 1 ppm [5]: ≥ 80%
- inhibition at 5 ppm [5]: ≥ 90%
- inhibition at 1 ppm [6]: ≥ 80%
- inhibition at 5 ppm [6]: ≥ 90%
- inhibition at 1 ppm [7]: ≥ 80%
- inhibition at 5 ppm [7]: ≥ 90%
- inhibition at 1 ppm [8]: ≥ 80%
- inhibition at 5 ppm [8]: ≥ 90%
- inhibition at 1 ppm [9]: ≥ 80%
- inhibition at 5 ppm [9]: ≥ 90%
- pest or weed control at 5 ppm [10]: ≥ 80%
- pest or weed control at 10 ppm [10]: ≥ 90%
- safety for plant growth (discoloration, necrosis, wilt, malformation) [12]: safe for plant growth
- pest or weed control at 5 ppm [13]: ≥ 90%
- pest or weed control at 10 ppm [13]: ≥ 90%
- pest or weed control at 5 ppm [14]: ≥ 90%
- pest or weed control at 10 ppm [14]: ≥ 90%
- pest or weed control at 5 ppm [15]: ≥ 80%
- pest or weed control at 10 ppm [15]: ≥ 90%
- pest or weed control at 5 ppm [16]: ≥ 90%
- pest or weed control at 10 ppm [16]: ≥ 90%
- pest or weed control at 5 ppm [17]: ≥ 80%
- pest or weed control at 10 ppm [17]: ≥ 90%
